According to patent publication US20100267629A1, “Enterostatin as Therapeutic Agent for Hypoglycemia” (Board of Supervisors of Louisiana State University and …, priority 2006, published 2010):
Like-named read-outs stand apart in the source and are kept apart here.

Key:
[1] = biological target: T1, Neuropeptide Y1 receptors (Homo sapiens, UniProt P25929); details: cited from earlier work
T1 sequence (P25929 1-384): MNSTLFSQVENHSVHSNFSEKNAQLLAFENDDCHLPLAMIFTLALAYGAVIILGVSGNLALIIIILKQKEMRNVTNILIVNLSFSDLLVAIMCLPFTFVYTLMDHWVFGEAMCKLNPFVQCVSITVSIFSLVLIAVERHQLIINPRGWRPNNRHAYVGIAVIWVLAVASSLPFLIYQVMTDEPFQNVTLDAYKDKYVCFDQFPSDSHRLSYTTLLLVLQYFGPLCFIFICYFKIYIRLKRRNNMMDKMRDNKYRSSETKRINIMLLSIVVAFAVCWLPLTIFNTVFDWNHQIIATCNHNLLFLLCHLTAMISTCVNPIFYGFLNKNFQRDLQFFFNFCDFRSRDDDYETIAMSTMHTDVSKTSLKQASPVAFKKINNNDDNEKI

[2] = biological target: T2, beta subunit of ATP synthase (Homo sapiens, UniProt P06576); details: receptor protein on liver plasma membranes; cited from earlier work
T2 construct: from tissue; host or cells: liver plasma membranes
T2 sequence (P06576 48-529): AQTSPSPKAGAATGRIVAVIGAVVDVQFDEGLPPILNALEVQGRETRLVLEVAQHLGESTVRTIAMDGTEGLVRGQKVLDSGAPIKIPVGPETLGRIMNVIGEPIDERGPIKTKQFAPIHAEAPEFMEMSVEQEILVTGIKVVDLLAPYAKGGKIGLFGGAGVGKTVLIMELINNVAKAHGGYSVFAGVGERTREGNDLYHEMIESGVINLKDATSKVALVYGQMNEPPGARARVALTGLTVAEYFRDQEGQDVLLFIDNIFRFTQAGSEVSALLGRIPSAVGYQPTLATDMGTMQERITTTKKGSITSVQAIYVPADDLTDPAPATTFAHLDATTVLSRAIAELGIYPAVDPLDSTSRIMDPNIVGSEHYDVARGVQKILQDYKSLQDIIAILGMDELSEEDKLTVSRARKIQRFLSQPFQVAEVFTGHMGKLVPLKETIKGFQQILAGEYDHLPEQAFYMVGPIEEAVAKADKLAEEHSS
T2 sequence (P25705 44-553 partner): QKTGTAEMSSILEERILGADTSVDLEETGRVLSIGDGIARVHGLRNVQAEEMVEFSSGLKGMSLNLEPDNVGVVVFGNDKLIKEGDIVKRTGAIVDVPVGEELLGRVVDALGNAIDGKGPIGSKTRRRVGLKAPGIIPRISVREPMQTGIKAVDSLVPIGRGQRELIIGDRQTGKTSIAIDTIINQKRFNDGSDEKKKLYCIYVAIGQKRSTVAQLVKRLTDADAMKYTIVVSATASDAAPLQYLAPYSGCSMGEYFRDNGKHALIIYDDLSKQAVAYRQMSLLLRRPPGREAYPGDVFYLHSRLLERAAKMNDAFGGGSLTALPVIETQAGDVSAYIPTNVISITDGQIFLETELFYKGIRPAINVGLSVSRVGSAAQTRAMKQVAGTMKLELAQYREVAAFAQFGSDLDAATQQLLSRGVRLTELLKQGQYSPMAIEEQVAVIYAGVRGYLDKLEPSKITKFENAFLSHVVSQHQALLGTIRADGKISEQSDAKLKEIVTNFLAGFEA
T2 sequence (P36542 26-298 partner): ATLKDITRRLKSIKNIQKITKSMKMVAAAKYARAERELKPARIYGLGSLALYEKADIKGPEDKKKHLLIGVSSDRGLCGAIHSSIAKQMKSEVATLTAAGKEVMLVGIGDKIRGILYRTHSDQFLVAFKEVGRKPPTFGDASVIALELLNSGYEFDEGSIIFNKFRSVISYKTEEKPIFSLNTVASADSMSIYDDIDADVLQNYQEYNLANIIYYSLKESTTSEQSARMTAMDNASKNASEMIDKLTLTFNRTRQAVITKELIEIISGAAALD
T2 sequence (P30049 23-168 partner): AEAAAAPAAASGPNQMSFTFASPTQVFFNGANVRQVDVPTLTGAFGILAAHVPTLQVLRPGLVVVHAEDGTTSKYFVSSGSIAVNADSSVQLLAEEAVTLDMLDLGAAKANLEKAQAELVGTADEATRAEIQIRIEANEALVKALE
T2 sequence (P56381 2-51 partner limits assumed): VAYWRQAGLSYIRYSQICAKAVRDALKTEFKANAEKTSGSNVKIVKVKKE

rats [3] = details: cited from earlier work; for Duration of action on feeding: single injection
AMPK [4] = experiment: pAMPK Western blot in HepG2 cells, 60 min incubation; format: cell-based, human; details: HepG2, one hour incubation
Description: (§1) In a second experiment, human liver cells (HepG2 cell line, American Type Culture Collection, Manassas, Va.) were grown and maintained in Dulbecco's modified eagle's medium (Gibco, Carlsbad, Calif.) containing 10% fetal bovine serum, penicillin (100 I.U./ml), and streptomycin (100 μg/ml). The cells were then incubated for 60 min with 5 mM glucose and various concentrations of enterostatin (0.001, 0.01, 0.03, 0.1, 1.0 μM). After incubation, the cells were lysed and the cytosolic proteins subjected to Western blot analysis for pAMPK and PKARIIβ.

PKARIIβ = PKARIIβ Western blot in HepG2 cells, 60 min incubation; format: cell-based, human; details: HepG2, one hour incubation
Description: as §1

humans = details: cited from earlier work
AMPK [5] = experiment: pAMPK Western blot in HepG2 cells, 15 min incubation; format: cell-based, human
Description: Human liver cells (HepG2 cell line, American Type Culture Collection, Manassas, Va.) were grown and maintained in Dulbecco's modified eagle's medium (Gibco, Carlsbad, Calif.) containing 10% fetal bovine serum, penicillin (100 I.U./ml), and streptomycin (100 μg/ml). The cells were then incubated for 15 min with 5 mM glucose and various concentrations of enterostatin (0.003, 0.01, 0.1, 1, and 3 μM) and/or of its antagonist β-casomorphin (BCM) (0.003, 0.01, 0.1, 1, and 3 μM). After incubation, the cells were lysed and the cytosolic proteins subjected to Western blot analysis for AMPK and pAMPK. The results for pAMPK activity are shown in FIG. 5A (enterostatin) and FIG. 5B (BCM). […] This effect was blocked by the presence of an antibody to the enterostatin receptor (anti F1-ATPase beta subunit).

[6] = indirect calorimetry; cited from earlier work
rabbits = details: single-choice diet; cited from earlier work
[7] = system: SK-N-MC neuroepithelioma cells; details: cited from earlier work
[8] = biological target: T3, cholecystokinin A receptors (Homo sapiens, UniProt P32238); details: cited from earlier work
T3 sequence (P32238 1-428): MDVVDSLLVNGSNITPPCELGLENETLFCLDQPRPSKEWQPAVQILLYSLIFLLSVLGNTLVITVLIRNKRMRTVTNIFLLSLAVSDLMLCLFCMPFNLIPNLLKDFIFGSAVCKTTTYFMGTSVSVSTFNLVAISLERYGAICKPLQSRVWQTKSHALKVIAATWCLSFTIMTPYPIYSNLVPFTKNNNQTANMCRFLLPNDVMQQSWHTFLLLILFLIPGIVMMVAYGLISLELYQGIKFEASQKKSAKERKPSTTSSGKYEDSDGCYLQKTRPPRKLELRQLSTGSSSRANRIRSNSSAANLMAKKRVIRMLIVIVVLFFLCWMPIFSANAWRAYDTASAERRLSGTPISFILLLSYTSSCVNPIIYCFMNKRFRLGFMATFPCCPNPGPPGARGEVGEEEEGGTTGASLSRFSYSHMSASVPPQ

baboons = details: single-choice diet; cited from earlier work
islet cells = details: cited from earlier work
galanin receptors = details: cited from earlier work
rats [9] = details: cited from earlier work
[10] = three-choice macronutrient diet

Which results are given for “Enterostatin: aminoterminal pentapeptide of procolipase released when procolipase is converted into colipase (VPDPR; printed: Val-Pro-Asp-Pro-Arg)”?
Binding [1]: not to bind; Kd [2]: 2.5 nM; Duration of action on feeding (rats [3]; rats adapted to ad-libitum feeding): up to 24 hours; Duration of action on feeding (rats [3]; rats adapted to six-hour feeding schedule): lasting up to six hours; Carbohydrate or protein intake (rats [3]; [10]): no effect; Intake of the fat macronutrient (rats [3]; [10]): reduced intake of the fat macronutrient; Intake of HF and LF diet (rats [3]; two-choice high-fat / low-fat diet): reduced only intake of the HF diet; Dose of peak effect on pAMPK (AMPK [4]): 0.01 μM; pAMPK levels (AMPK [4]; 5 mM glucose): increase in pAMPK levels; Dose of peak increase in PKARIIβ (PKARIIβ): 10 nM; PKARIIβ (PKARIIβ; 5 mM glucose): increase in PKARIIβ; Food intake (humans): not been found to reduce food intake; Subjective feeling of hunger (humans; intravenous injection): reduce the subjective feeling of hunger; Effect on pAMPK in presence of antibody anti F1-ATPase beta subunit (AMPK [5]; HepG2, 15 min, 5 mM glucose): blocked; AMPkinase activity shown by pAMPK (AMPK [5]; HepG2, 15 min, 5 mM glucose, 0.003-3 μM): inhibited AMPkinase; β-casomorphin stimulation of pAMPK levels (AMPK [5]; HepG2, enterostatin 0.01, 0.1 and 1.0 uM with β-casomorphin): reversed dose-dependently; Fat oxidation [6]: enhance fat oxidation; Food intake (rabbits): reduce food intake; Kd [7]: 40 nM; Binding [8]: not to bind; Food intake (baboons): reduce food intake; Insulin secretion stimulated by glybenclamide (islet cells; glybenclamide 5.0 and 10 μM): inhibited insulin secretion; Intracellular cyclic AMP content (islet cells; increase produced by U50,488 100 nM): reduced the increase in intracellular cyclic AMP content; Insulin secretion (islet cells; islets, 16.7 mM glucose, 10^−9 to 10^−5 M, dose-dependent): inhibited insulin secretion; Doses inhibiting insulin secretion (islet cells; isolated pancreatic islets): 10^−10 to 10^−6 M; Insulin secretion stimulated by U50,488 (islet cells; kappa-opioid agonist U50,488 100 nM): inhibited insulin secretion; Insulin secretion stimulated by TPA (islet cells; phorbol 12-myristate-13-acetate 50 and 100 nM): inhibited insulin secretion; Binding (galanin receptors): not to bind; Fat deposition and body weight gain (rats [9]; chronic icv, HF diets): reduction in fat deposition and body weight gain; Daily intake of dietary fat (rats [9]; chronic icv, single-choice HF or two-choice HF/LF diet): attenuated the daily intake of dietary fat; Energy intake or change in body weight gain (rats [9]; chronic treatment, low-fat diet for seven days): no significant reduction
